Measured values reported in ChEMBL document CHEMBL3039007, “Structure-based identification of OATP1B1/3 inhibitors” (Mol Pharmacol, 2013).

How the values were obtained:
[1] = biological target: T1, Solute carrier organic anion transporter family member 1B3 (Homo sapiens, UniProt Q9NPD5); details: chinese hamster, cho, 10 µM
T1 sequence (Q9NPD5 whole entry): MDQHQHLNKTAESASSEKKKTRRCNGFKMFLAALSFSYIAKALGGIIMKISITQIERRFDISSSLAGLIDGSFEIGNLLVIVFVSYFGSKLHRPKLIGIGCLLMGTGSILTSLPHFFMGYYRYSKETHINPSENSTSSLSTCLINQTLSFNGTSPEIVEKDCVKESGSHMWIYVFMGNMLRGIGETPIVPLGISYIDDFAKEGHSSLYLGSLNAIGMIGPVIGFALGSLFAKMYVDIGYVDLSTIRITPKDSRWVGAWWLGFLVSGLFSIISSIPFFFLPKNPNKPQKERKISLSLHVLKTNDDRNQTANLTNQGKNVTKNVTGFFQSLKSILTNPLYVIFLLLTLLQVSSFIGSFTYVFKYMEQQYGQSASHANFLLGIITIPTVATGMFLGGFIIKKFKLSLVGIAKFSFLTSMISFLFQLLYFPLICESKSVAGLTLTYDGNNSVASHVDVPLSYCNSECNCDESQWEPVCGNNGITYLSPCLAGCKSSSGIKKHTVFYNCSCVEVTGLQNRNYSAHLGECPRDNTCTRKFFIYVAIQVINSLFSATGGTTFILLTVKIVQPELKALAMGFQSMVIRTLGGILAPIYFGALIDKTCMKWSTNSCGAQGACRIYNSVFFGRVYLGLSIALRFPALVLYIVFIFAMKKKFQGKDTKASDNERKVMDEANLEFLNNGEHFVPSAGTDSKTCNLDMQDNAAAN

[2] = biological target: T2, Solute carrier organic anion transporter family member 1B1 (Homo sapiens, UniProt Q9Y6L6); details: chinese hamster, cho, 10 µM
T2 sequence (Q9Y6L6 whole entry): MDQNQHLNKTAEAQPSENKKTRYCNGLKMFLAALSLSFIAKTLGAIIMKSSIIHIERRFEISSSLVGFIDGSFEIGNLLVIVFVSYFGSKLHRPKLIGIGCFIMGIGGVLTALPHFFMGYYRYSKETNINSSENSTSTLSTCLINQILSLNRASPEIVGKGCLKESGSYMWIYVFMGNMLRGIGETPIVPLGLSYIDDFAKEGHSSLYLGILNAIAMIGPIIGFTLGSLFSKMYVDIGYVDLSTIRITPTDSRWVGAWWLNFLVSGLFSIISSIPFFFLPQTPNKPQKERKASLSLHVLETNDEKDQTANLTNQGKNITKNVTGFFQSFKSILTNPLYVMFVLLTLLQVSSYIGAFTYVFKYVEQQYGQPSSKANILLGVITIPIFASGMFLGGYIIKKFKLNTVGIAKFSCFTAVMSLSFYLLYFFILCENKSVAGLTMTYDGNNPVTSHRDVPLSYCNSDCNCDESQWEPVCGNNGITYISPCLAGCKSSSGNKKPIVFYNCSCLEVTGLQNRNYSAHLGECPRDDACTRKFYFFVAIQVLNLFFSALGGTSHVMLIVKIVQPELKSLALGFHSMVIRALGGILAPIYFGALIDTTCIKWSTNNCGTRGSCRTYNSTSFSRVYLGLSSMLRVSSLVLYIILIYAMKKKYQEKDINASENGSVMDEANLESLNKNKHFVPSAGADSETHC

Molecule `COc1ccc(C2C(=O)c3ccccc3C2=O)cc1` [ANISINDIONE] has a residual activity [1] of 75.63% and a residual activity [2] of 74.63%.

`CN(C)CCC(c1ccccc1)c1ccccn1.O=C(O)/C=C\C(=O)O` (stereo not drawn) [PHENIRAMINE MALEATE] showed a residual activity [1] of 103.2% and a residual activity [2] of 72.53%.

Work on `CC(=O)[C@H]1CC[C@H]2[C@@H]3CC(=O)C4=CC(=O)CC[C@]4(C)[C@H]3CC[C@]12C` yielded a residual activity [1] of 75.51% and a residual activity [2] of 38.54%.

`Cc1cccc(N(C)C(=S)Oc2ccc3ccccc3c2)c1` [TOLNAFTATE] was tested, and the residual activity [1] was 119% and the residual activity [2] was 126.3%.

`C[C@@H]1O[C@@H](O[C@H]2[C@H](Oc3cc(O)c4c(c3)O[C@H](c3ccc(O)cc3)CC4=O)O[C@H](CO)[C@@H](O)[C@@H]2O)[C@H](O)[C@H](O)[C@H]1O` [NARINGIN] showed a residual activity [1] of 137.8% and a residual activity [2] of 100.1%.

Work on `CCCCCCCCCCCC1=C(O)C(=O)C=C(O)C1=O` [EMBELIN] yielded a residual activity [1] of 94.22% and a residual activity [2] of 98.02%.

Molecule `Cc1cc(C2CCCCC2)n(O)c(=O)c1.NCCO` [CICLOPIROX OLAMINE] has a residual activity [1] of 106% and a residual activity [2] of 129.1%.

`CCCCN1CCCCC1C(=O)Nc1c(C)cccc1C.Cl` (stereo not drawn) [BUPIVACAINE HYDROCHLORIDE] gave a residual activity [1] of 94.2% and a residual activity [2] of 97.15%.

For `O=C(O)c1cccnc1Nc1cccc(C(F)(F)F)c1` [NIFLUMIC ACID], the residual activity [1] was 83.73% and the residual activity [2] was 79.63%.

`C=C1C(=O)O[C@@H]2C3O[C@]3(C)CC/C=C(\C)CC[C@@H]12` (stereo partly drawn) gave a residual activity [1] of 114.2% and a residual activity [2] of 140.7%.

Work on `CC(C)(C)NCC(O)COc1cccc2c1CC(O)C(O)C2` (stereo not drawn) [NADOLOL] yielded a residual activity [1] of 86.47% and a residual activity [2] of 76.36%.

Molecule `CC1(C)CC[C@]2(C)CC[C@]3(C)C(=CC[C@@H]4[C@@]5(C)CC[C@H](O)C(C)(C)[C@@H]5CC[C@]43C)[C@@H]2C1` [beta-AMYRIN] has a residual activity [1] of 75.14% and a residual activity [2] of 65.86%.

Molecule `O=c1cc(-c2ccccc2)oc2cc(O)cc(O)c12` [CHRYSIN] has a residual activity [1] of 129.1% and a residual activity [2] of 115.4%.

Molecule `COc1ccc(C(Cl)=C(c2ccc(OC)cc2)c2ccc(OC)cc2)cc1` [CHLOROTRIANISENE] has a residual activity [1] of 92.54% and a residual activity [2] of 91.3%.

For `Cl.O=c1n(CCCN2CCN(c3cccc(Cl)c3)CC2)nc2ccccn12` [TRAZODONE HYDROCHLORIDE], the residual activity [1] was 111.6% and the residual activity [2] was 98.06%.

With `O=c1c(-c2ccccc2)coc2cc(O)cc(O)c12` [5,7-DIHYDROXYISOFLAVONE] the residual activity [1] was 75.57% and the residual activity [2] was 54.1%.

With `O=C(O)c1cccc(O)c1O` [2,3-DIHYDROXYBENZOIC ACID] the residual activity [1] was 84.74% and the residual activity [2] was 94.43%.

In the case of `Cn1c(=O)c2[nH]c(C3CCCC3)nc2n(C)c1=O` [8-CYCLOPENTYLTHEOPHYLLINE], the residual activity [1] is reported as 94.04% and the residual activity [2] is reported as 111.5%.

Molecule `CCCCOc1ccc(CC(=O)NO)cc1` [BUFEXAMAC] has a residual activity [1] of 92.18% and a residual activity [2] of 89.04%.

In the case of `CC1(C)C[C@@H]2C(=O)CC[C@H]3O[C@]3(C)CC[C@H]21` [KOBUSONE], the residual activity [1] is reported as 84.64% and the residual activity [2] is reported as 64.48%.

`Cc1cc(/C=C/c2ccc3cc(N(C)C)ccc3[n+]2C)c(C)n1-c1ccccc1.Cc1cc(/C=C/c2ccc3cc(N(C)C)ccc3[n+]2C)c(C)n1-c1ccccc1.O=C([O-])c1cc2ccccc2c(Cc2c(O)c(C(=O)[O-])cc3ccccc23)c1O` [PYRVINIUM PAMOATE] was tested, and the residual activity [1] was 32.66% and the residual activity [2] was 42.61%.

Molecule `COc1cc(C(C)=O)cc(OC)c1O` [ACETOSYRINGONE] has a residual activity [1] of 115.4% and a residual activity [2] of 104.7%.

For `CC(=O)Nc1nnc(S(N)(=O)=O)s1` [ACETAZOLAMIDE], the residual activity [1] was 84.51% and the residual activity [2] was 90.74%.

For `O=C1N=C([O-])NC1(c1ccccc1)c1ccccc1.[Na+]` [PHENYTOIN SODIUM], the residual activity [1] was 97.47% and the residual activity [2] was 95.94%.

`COc1cc(OC)c(OC)cc1C=O` showed a residual activity [1] of 59.17% and a residual activity [2] of 48.71%.

`CC(=O)O[C@]1(C(C)=O)CC[C@H]2[C@@H]3C[C@H](C)C4=CC(=O)CC[C@]4(C)[C@H]3CC[C@@]21C` [MEDROXYPROGESTERONE ACETATE] showed a residual activity [1] of 104.4% and a residual activity [2] of 105.9%.

Molecule `CC(C)=CC1C(C(=O)O)C1(C)C` (stereo not drawn) [CHRYSANTHEMIC ACID] has a residual activity [1] of 97.37% and a residual activity [2] of 83.79%.

With `CCC(=O)c1c(O)cc(O)cc1O` [FLOPROPIONE] the residual activity [1] was 107.4% and the residual activity [2] was 69.54%.

With `NC1(C(=O)O)CCCC1` [CYCLOLEUCINE] the residual activity [1] was 108.5% and the residual activity [2] was 99.09%.

Molecule `CC[C@H](CC[C@@H](C)[C@H]1CC[C@H]2[C@@H]3CC=C4C[C@@H](OC(C)=O)CC[C@]4(C)[C@H]3CC[C@]12C)C(C)C` [SITOSTERYL ACETATE] has a residual activity [1] of 83.78% and a residual activity [2] of 97.72%.

In the case of `Cn1cnc([N+](=O)[O-])c1Sc1ncnc2nc[nH]c12` [AZATHIOPRINE], the residual activity [1] is reported as 107.3% and the residual activity [2] is reported as 128.4%.

With `C#C[C@]1(OC(C)=O)CC[C@H]2[C@@H]3CCC4=CC(=O)CC[C@@H]4[C@H]3CC[C@@]21C` [NORETHINDRONE ACETATE] the residual activity [1] was 104.9% and the residual activity [2] was 106.9%.

Work on `Cl.O=C(O)C1=CCCNC1` [GUVACINE HYDROCHLORIDE] yielded a residual activity [1] of 108.7% and a residual activity [2] of 115%.

In the case of `COc1cc(NS(=O)(=O)c2ccc(N)cc2)nc(OC)n1` [SULFADIMETHOXINE], the residual activity [1] is reported as 103% and the residual activity [2] is reported as 118.7%.

`ClC1=C(Cl)C2(Cl)C3C(Cl)C(Cl)CC3C1(Cl)C2(Cl)Cl` (stereo not drawn) [CHLORDANE] gave a residual activity [1] of 121.6% and a residual activity [2] of 98.3%.

With `C[C@]12CCC(=O)C=C1CCc1ccc(O)cc12` [12-HYDROXY-4,4-BISNOR-4,8,11,13-PODOCARPATETRAEN-3-ONE] the residual activity [1] was 82.18% and the residual activity [2] was 47.54%.

`CNCCC(Oc1ccc(C(F)(F)F)cc1)c1ccccc1` (stereo not drawn) [FLUOXETINE] showed a residual activity [1] of 77.22% and a residual activity [2] of 55.32%.

`COC(=O)C1=CO[C@@H](O[C@@H]2O[C@H](CO)[C@@H](O)[C@H](O)[C@H]2O)[C@@H]2[C@@H](C)[C@@H](O)C[C@H]12` [LOGANIN] showed a residual activity [1] of 87.42% and a residual activity [2] of 98.87%.

`O=c1ccc2ccc(O)cc2o1` [UMBELLIFERONE] gave a residual activity [1] of 76.49% and a residual activity [2] of 26.71%.

For `Cc1ccc(/C(=C\CN2CCCC2)c2ccccn2)cc1.Cl`, the residual activity [1] was 76.5% and the residual activity [2] was 83.77%.

Work on `Cl.OC1CCCCC1N1CCC(c2ccccc2)CC1` (stereo not drawn) [VESAMICOL HYDROCHLORIDE] yielded a residual activity [1] of 101.2% and a residual activity [2] of 64.34%.

In the case of `Cc1cc(CC(=O)[O-])n(C)c1C(=O)c1ccc(Cl)cc1.O.O.[Na+]` [ZOMEPIRAC SODIUM], the residual activity [1] is reported as 118.7% and the residual activity [2] is reported as 132.9%.

`CC(=O)Oc1cccc2c1C(=O)c1c(OC(C)=O)cc(C(=O)O)cc1C2=O` [DIACEREIN] showed a residual activity [1] of 86.69% and a residual activity [2] of 72.58%.

`C/C=C/c1ccc2c(c1)OCO2` [ISOSAFROLE] gave a residual activity [1] of 79.83% and a residual activity [2] of 75.01%.

`Sc1ncnc2nc[nH]c12` [MERCAPTOPURINE ANHYDROUS] was tested, and the residual activity [1] was 105.3% and the residual activity [2] was 107.8%.

`Nc1nc(=O)c2c([nH]1)NCC(CNc1ccc(C(=O)N[C@@H](CCC(=O)[O-])C(=O)[O-])cc1)N2C=O.[Ca+2]` (stereo partly drawn) [LEUCOVORIN CALCIUM] gave a residual activity [1] of 90.54% and a residual activity [2] of 80.81%.

With `CC(=O)[C@H]1CC[C@H]2[C@@H]3CCC4=CC(=O)CC[C@]4(C)[C@H]3CC[C@]12C` [PROGESTERONE] the residual activity [1] was 92% and the residual activity [2] was 52.43%.

Molecule `COc1cc(O)c(C(=O)/C=C/c2ccccc2)c(OC)c1` [FLAVOKAWAIN B] has a residual activity [1] of 125.2% and a residual activity [2] of 141.4%.

Molecule `C[C@H]1C[C@H]2[C@@H]3CCC4=CC(=O)C=C[C@]4(C)[C@@]3(F)[C@@H](O)C[C@]2(C)[C@@]1(O)C(=O)CO` [BETAMETHASONE] has a residual activity [1] of 102.7% and a residual activity [2] of 76.17%.
